In patent US20210338609A1, “COMPOSITIONS FOR ADMINISTRATION TO ANIMALS TO INCREASE GUT NON-PROTEIN NITROGEN LEVELS” (D.I.T Technologies Ltd, priority 2018, published 2021):
Read-outs that look alike come from different tables or passages of the source.

Target: T1, urease (Canavalia ensiformis, UniProt P07374)
T1 construct: purchased Siemens Azostix reagent test strip
Assay type: biochemical
Conditions: for urea converted to ammonia: within 60 seconds
Text: In an embodiment, the physiologically acceptable composition may have a pH of substantially 2. […] The capacity of a composition containing urea to produce ammonia toxicity in ruminant animals can be measured with a urease test strip. These strips contain the enzyme urease. Urease is specific to urea and catalyses the breakdown to ammonia, and the strip undergoes a colour change when the urease strip is exposed to ammonia.
These strips contain the enzyme urease and the indicator bromothymol blue. Urease is specific to urea and breaks it down to ammonia. […] Therefore, the strip turns from yellow to green when the urease strip is exposed to urea. One strip was exposed to a solution of urea at the rate of 1 gram per litre.

T1 sequence (P07374 whole entry, looked up): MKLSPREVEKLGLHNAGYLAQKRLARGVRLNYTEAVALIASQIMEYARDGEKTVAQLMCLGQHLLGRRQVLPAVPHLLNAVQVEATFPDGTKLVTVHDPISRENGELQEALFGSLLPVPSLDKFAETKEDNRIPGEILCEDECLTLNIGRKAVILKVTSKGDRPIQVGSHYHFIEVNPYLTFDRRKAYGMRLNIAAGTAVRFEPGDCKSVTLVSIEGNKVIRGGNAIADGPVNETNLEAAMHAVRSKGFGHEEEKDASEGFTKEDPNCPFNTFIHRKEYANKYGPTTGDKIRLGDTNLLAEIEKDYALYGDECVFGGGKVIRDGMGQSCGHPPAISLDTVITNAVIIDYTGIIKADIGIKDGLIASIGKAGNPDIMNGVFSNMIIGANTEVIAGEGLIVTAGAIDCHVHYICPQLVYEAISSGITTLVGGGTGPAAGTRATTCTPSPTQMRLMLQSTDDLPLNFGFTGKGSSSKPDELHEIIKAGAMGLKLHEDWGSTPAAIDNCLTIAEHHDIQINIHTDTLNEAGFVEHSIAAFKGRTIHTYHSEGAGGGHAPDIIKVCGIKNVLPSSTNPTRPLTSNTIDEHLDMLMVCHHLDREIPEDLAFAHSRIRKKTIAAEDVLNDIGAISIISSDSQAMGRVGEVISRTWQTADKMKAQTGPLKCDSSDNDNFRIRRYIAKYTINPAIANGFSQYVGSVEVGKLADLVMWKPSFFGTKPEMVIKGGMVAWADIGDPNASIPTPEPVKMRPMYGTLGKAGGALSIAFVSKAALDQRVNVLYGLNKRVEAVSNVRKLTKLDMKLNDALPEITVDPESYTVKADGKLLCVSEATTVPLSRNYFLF

Row | SMILES | colour change of urease test strip (ammonia production) (solution of urea at 1 gram per litre) | urea converted to ammonia (urea only mix, 1 gram per litre) | colour change of urease test strip (ammonia production) (urea phosphate at 5 grams per litre) | urea converted to ammonia (urea phosphate, 5 grams per litre)
1 | NC(N)=O [urea] | turned from the unexposed yellow colour to a deep green | all | – | –
2 | NC(N)=O.O=P(O)(O)O [urea phosphate] | – | – | unchanged | none
